# Laboratory results as given in paper PMC6844379, “Design, synthesis, in vitro inhibition and toxicological evaluation of human carbonic anhydrases I, II and IX inhibitors in 5-nitroimidazole series” (Journal of Enzyme Inhibition and Medicinal Chemistry, 2019).
# Molecular target: T1, hCA I (Homo sapiens, UniProt P00915)
# T1 construct: gene CA1; recombinant, obtained in house as reported earlier; cytosolic isoform
# Test: stopped-flow CO2 hydrase assay
# Assay type: biochemical
# Settings: […] Hepes pH […] Na2SO4, CO2 […], […] min pre-incubation at room temperature
# T1 sequence (P00915 2-261): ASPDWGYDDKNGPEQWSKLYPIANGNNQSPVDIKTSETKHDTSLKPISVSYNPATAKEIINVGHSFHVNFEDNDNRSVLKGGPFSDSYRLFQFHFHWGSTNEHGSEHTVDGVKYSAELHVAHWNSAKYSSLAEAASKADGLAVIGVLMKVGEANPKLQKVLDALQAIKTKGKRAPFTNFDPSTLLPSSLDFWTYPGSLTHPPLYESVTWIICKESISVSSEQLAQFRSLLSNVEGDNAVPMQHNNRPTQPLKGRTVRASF
structure (smiles),measurement,value
"Cc1ncc([N+](=O)[O-])n1CCS(N)(=O)=O [compound 10, 2-(2-Methyl-5-nitro-1H-imidazol-1-yl)ethane-1-sulphonamide]",Ki,6430 nM
